Experimental findings from patent publication US11166924B2, “N-methyl-d-aspartate receptor allosteric modulators and methods for their use” (Qingdao Primedicine Pharmaceutical Company, Ltd., priority 2016, dated 2021) are described below.

Common to all, as to format: cell-based
For one assay, the target named is T1, GluN1/GluN2A NMDARs (Rattus norvegicus, UniProt P35439+Q00959).
T1 construct: expressed in transfected cells; host or cells: HEK293
Nature of the assay: Whole-cell patch clamp recordings in HEK293 cells transfected with GluN1/GluN2A. Particulars: for Enhancement of NMDA-mediated currents: compared to glutamate alone; for Selectivity for GluN1/GluN2A versus GluN1/GluN2B NMDARs: FIG. 2, HEK293 cells expressing GluN1/GluN2A and GluN1/GluN2B; for Normalized Potentiation: positive modulation of GluN1/GluN2A NMDARs, concentration not given. The procedure, abridged:
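Rat GluN1/GluN2A (1:1) transiently expressed in HEK293, recorded 48 h post-transfection by whole-cell voltage clamp at −60 mV, room temperature. CsCl/BAPTA pipette solution, pH 7.4 bath, glutamate/NMDA-evoked currents by fast perfusion. ≥6 cells per compound; EC50, relative efficacy versus maximal glutamate response and Hill slope from pooled dose-response fits.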
A general note: The patch-clamp technique gives a direct electrical read-out from membranes.

Another assay deals with T2, GluN1/GluN2A^F177S (Rattus norvegicus, UniProt P35439+Q00959, F177S).
T2 construct: expressed in transfected cells; host or cells: HEK293
Nature of the assay: Patch clamp in HEK293 cells expressing mutant GluN1/GluN2A F177S. As for the experimental part: (§1) Whole cell patch-clamp recordings were performed under voltage-clamp mode using an Axopatch 200B or 1D patch-clamp amplifier (Molecular Devices). Whole-cell currents were recorded at a holding potential of −60 mV unless indicated elsewhere, and signals were filtered at 2 kHz, digitized at 10 kHz (Digidata 1322A). Recording pipettes (3-5 MΩ) were filled with intracellular solution containing (mM): CsCl 140, HEPES 10, Mg-ATP 4, QX-314 5, pH 7.20; osmolarity, 290-295 mOsm. BAPTA (10 mM) was added in the intracellular solution (unless otherwise specified). The coverslips were continuously superfused with extracellular solution containing (mM): NaCl 140, KCl 5.4, HEPES 10, CaCl2 1.3, glucose 20, pH 7.4; osmolarity, 305-315 mOsm. NMDA-induced currents were applied by NMDA through perfusion fast-step (Warner Instruments). With perfusion fast-step system, NMDA application was achieved by using a two-square barrel glass tubing and depending on the age of the cultured neurons, CNQX (10 μM), TTX (0.5 μM) or BIC (10 μM) were added in the extracellular solution to minimize the activation of ionotropic glutamate receptors and voltage-gated sodium channels, respectively. All experiments were performed at room temperature. Recordings from at least six HEK293 cells/neurons were performed for all active compounds. Data were pooled among HEK293 cells or primary neurons and composite dose-response data were fitted by the equation Percentage Response=100×Relative Efficacy/[1+(EC50/Concentration)nH], where EC50 is the concentration of agonist that produces a half-maximal response, relative efficacy is the response at maximally effective concentration relative to the maximal response of glutamate, and nH is the Hill slope.
(§2) The site-directed mutagenesis of GluN1 or GluN2A subunits were performed by using the QuikChange method (Stratagene). All mutant clones were confirmed by DNA sequencing. Wild-type or mutant subunits were transfected in HEK293 cells and subjected to electrophysiology examinations. […]

The target in assay [1] is NMDARs in cultured hippocampal neurons (Rattus norvegicus, UniProt P35439+Q00959). The assay is described as follows: Whole-cell voltage clamp recordings of NMDAR currents in cultured hippocampal/cortical neurons.
Chain of NMDARs in cultured hippocampal neurons (Q00959 23-1464, other chains not shown): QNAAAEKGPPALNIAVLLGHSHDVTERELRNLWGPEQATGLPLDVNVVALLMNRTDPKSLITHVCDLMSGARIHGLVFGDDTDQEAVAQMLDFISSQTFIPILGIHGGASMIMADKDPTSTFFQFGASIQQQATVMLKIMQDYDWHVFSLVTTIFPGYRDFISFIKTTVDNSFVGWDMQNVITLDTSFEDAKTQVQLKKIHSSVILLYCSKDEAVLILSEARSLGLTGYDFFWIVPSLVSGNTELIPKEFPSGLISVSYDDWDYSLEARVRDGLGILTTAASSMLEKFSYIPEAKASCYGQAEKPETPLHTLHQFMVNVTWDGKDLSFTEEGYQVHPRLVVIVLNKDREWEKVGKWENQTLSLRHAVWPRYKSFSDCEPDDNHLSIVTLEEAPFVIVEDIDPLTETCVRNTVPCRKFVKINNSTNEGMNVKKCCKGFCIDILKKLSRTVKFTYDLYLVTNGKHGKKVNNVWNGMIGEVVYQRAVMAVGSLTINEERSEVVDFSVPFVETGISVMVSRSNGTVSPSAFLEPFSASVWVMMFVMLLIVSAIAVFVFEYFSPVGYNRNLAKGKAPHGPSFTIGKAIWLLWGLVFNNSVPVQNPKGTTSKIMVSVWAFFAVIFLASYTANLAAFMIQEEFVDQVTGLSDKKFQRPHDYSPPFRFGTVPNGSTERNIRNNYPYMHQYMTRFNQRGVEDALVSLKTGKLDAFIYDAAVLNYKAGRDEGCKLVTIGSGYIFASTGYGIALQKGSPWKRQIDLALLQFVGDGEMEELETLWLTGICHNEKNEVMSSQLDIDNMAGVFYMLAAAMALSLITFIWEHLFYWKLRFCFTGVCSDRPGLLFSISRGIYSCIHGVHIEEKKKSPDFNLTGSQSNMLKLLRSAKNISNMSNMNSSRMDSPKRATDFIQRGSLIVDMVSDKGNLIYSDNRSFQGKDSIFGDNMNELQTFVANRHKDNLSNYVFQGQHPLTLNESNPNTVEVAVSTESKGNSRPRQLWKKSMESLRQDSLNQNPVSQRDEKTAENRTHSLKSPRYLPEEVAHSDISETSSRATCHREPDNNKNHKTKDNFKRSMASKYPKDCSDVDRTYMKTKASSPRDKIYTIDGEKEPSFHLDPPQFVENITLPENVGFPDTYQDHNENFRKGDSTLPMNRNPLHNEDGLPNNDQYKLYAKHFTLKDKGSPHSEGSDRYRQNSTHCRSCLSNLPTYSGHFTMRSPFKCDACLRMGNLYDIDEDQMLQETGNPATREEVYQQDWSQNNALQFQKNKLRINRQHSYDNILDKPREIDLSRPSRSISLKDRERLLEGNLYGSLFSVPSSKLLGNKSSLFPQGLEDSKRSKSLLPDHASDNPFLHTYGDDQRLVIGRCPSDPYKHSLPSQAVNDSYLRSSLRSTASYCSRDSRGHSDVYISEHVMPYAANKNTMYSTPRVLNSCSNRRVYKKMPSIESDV
For the next assay, the target named is T3, GluN1/GluN2A^Q111A (Rattus norvegicus, UniProt P35439+Q00959, Q111A).
T3 construct: expressed in transfected cells; host or cells: HEK293
T3 sequence (Q00959 23-1464 Q111A, other chains not shown): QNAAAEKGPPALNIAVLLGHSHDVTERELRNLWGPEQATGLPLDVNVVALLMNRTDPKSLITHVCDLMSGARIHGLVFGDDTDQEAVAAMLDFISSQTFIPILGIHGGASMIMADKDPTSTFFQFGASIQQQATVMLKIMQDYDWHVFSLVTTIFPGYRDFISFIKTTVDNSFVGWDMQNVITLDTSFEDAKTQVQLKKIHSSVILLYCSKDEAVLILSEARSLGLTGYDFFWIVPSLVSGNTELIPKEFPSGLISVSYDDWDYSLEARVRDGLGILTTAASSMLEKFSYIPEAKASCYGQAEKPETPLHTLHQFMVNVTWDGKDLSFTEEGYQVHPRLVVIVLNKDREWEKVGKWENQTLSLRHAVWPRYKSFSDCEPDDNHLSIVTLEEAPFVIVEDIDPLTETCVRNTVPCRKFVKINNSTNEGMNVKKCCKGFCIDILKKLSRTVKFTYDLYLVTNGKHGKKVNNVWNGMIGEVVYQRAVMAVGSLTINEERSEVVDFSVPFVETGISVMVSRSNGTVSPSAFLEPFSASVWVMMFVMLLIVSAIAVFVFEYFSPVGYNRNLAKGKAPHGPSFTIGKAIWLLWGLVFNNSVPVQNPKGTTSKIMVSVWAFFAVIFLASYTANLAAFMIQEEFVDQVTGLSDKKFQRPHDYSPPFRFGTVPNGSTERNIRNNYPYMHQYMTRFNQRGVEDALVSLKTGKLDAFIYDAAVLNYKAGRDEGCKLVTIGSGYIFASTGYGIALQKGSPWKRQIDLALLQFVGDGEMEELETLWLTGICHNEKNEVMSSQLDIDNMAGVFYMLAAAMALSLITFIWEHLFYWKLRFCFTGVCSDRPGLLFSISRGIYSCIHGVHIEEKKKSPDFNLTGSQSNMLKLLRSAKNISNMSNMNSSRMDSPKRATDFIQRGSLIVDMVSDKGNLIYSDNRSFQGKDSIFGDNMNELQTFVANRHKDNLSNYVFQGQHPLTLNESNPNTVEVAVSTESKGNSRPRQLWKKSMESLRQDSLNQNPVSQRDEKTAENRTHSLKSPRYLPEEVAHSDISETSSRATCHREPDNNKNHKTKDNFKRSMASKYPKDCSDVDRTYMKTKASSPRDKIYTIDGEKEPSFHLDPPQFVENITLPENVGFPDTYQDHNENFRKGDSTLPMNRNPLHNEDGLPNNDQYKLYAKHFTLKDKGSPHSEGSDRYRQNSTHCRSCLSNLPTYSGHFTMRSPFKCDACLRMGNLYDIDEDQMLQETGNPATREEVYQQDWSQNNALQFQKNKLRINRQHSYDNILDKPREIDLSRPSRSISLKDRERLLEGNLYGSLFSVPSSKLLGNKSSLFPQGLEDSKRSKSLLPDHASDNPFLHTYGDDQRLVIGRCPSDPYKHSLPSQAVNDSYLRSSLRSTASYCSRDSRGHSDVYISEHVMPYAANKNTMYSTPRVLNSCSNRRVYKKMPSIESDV
The assay is described as follows: Patch clamp in HEK293 cells expressing mutant GluN1/GluN2A Q111A. As for the experimental part: as §1, §2

The next assay deals with T4, GluN1/GluN2B NMDARs (Rattus norvegicus, UniProt P35439+Q00960).
T4 construct: expressed in transfected cells; host or cells: HEK293
T4 sequence (Q00960 27-1482, other chains not shown): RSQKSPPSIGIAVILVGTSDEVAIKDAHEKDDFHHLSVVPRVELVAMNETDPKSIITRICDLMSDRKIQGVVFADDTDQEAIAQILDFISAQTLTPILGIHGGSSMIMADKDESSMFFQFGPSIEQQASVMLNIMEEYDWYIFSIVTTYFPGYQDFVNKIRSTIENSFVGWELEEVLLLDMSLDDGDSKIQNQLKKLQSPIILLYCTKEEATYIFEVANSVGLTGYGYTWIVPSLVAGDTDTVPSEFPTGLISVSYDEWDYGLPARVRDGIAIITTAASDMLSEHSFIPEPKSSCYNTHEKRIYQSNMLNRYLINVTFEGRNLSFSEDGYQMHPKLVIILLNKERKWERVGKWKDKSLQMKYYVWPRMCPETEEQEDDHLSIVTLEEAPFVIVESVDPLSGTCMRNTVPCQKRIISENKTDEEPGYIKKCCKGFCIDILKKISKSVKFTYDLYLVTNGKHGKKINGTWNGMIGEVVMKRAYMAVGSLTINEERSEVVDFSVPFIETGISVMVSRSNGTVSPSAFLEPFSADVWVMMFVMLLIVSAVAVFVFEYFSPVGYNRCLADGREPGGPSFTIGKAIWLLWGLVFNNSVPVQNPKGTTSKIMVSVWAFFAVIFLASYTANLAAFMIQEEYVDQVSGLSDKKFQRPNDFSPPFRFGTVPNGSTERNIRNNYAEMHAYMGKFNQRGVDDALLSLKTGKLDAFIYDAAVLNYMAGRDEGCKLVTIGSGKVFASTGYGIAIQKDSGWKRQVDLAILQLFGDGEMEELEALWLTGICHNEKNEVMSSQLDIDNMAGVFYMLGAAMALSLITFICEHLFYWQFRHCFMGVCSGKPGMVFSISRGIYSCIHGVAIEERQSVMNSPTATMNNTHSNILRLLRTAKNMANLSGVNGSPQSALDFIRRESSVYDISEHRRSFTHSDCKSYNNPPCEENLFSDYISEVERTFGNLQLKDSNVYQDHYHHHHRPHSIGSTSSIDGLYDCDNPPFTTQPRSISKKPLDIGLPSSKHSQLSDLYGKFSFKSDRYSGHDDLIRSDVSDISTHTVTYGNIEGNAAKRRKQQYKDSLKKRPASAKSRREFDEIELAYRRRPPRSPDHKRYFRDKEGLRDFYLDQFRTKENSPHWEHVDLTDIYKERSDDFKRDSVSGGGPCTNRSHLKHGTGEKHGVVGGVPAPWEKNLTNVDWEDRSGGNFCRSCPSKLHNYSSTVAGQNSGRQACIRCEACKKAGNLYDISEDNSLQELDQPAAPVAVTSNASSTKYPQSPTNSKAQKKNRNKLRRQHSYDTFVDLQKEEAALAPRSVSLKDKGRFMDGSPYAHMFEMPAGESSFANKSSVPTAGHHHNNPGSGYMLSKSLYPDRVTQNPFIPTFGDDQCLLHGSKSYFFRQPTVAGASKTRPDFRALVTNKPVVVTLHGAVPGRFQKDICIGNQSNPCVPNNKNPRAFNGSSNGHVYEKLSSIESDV
Nature of the assay: Whole-cell patch clamp recordings in HEK293 cells transfected with GluN1/GluN2B.

Where two headings read alike, the source gives them in different places.

`COc1cccc(/C=N/NC(=O)c2ccccc2C)c1O` [Npam02, (E)-N′-(2-hydroxy-3-methoxybenzylidene)-2-methylbenzohydrazide]: the “Currents induced by compound applied alone” value at GluN1/GluN2A NMDARs (100 μM alone) is “no changes of inward or outward currents”. In addition, the “Enhancement of NMDA-mediated currents” value is reported as 38.85±3.70% on GluN1/GluN2A NMDARs (100 μM co-applied with co-agonists) and 71.69±5.03% on GluN1/GluN2A NMDARs (200 μM co-applied with co-agonists). Further, the “Modulation effect, wild-type” value at GluN1/GluN2A NMDARs (100 μM, wild-type GluN1/GluN2A, FIG. 8c) stood at 41.75±2.62%. The “Selectivity for GluN1/GluN2A versus GluN1/GluN2B NMDARs” value at GluN1/GluN2A NMDARs was “selective for GluN1/GluN2A NMDARs”. In addition, the “Normalized Potentiation” value at GluN1/GluN2A NMDARs (Table 1) turned out to be 243.57 ± 24.81%. Also, the “Modulation effect, GluN2A Phe177Ser” value on GluN1/GluN2A^F177S (100 μM, FIG. 8c) was 22.86±1.12%. The results for the “Currents induced by compound on its own” value (in assay [1]; at GluN1/GluN2B NMDARs) were “not able to induce inward or outward currents on its own” and “did not induce currents on its own”, respectively. Moreover, the activation at 100 µM in assay [1] (100 μM bath, NMDA 5 uM, glycine 2 μM, compared to NMDA control, read-out: Modulation of NMDAR currents) was 43 ± 6.55%; at GluN1/GluN2B NMDARs (HEK293, Table 2, 100 μM, read-out: Normalized Potentiation GluN1/GluN2B), -4.82 ± 2.83%. For the same compound, the “Modulation effect, GluN2A Gln111Ala” value at GluN1/GluN2A^Q111A (100 μM, FIG. 8c) came out at 30.69±1.60%. Further, the “Potentiation of NMDAR currents” value at GluN1/GluN2B NMDARs (100 μM) is “did not exhibit potentiation of NMDAR currents”.

In the case of `CCOc1cc(Cl)c(Cl)c(/C=N/NC(=O)c2ccccc2Br)c1O` [Npam43, (E)-2-bromo-N′-(2,3-dichloro-5-ethoxy-6-hydroxybenzylidene)benzohydrazide], on GluN1/GluN2A NMDARs, the “Currents evoked by compound on its own” value is on record as “did not evoke currents on its own”. In addition, the “Enhancement of NMDA-mediated currents” value on GluN1/GluN2A NMDARs (10 μM co-applied with co-agonists) is given as “dramatically enhanced”. The “Selectivity for GluN1/GluN2A versus GluN1/GluN2B NMDARs” value at GluN1/GluN2A NMDARs is given as “selective for GluN1/GluN2A NMDARs”. Further, the “Normalized Potentiation” value on GluN1/GluN2A NMDARs (Table 1) turned out to be 363.52 ± 27.3%. Also, the EC50 at GluN1/GluN2A NMDARs (Table 1, potentiation, read-out: EC50) was 270 nM; on GluN1/GluN2A NMDARs (dose-response, FIG. 9, read-out: EC50 of enhancement of GluN1/GluN2A currents) it was 240 ± 50 nM; on GluN1/GluN2A NMDARs (dose-response, FIG. 9, read-out: pEC50 of enhancement of GluN1/GluN2A currents (converted)), around 243 nM. Besides, the Relative potentiation worked out at 209 ± 6.7% at GluN1/GluN2A NMDARs (Table 3, GluN1^WT/GluN2A^WT); 79.9 ± 2.6% at GluN1/GluN2A^F177S (Table 3, GluN2A F177S); 129 ± 6.7% at GluN1/GluN2A^Q111A (Table 3, GluN2A Q111A). Further, on GluN1/GluN2A NMDARs (dose-response, FIG. 9), the “Saturation of enhancement relative to co-agonists alone baseline” value is given as around 350%. In addition, the “Net Difference potentiation” value is listed as −61.7 ± 0.03% at GluN1/GluN2A^F177S (GluN2A F177S, normalized to wild-type) and −38.4±0.78% on GluN1/GluN2A^Q111A (GluN2A Q111A, normalized to Npam43 response in wild-type GluN1/GluN2A). For the same compound, the activation at 10 µM in assay [1] (10 μM, read-out: Potentiation at saturation point, above control level baseline) amounted to 322 ± 27%. Besides, the “Selective potentiation of GluN1/GluN2A NMDARs in hippocampal neurons” value in assay [1] (FIG. 12, with ifenprodril, NVP-AAM077, AP5 controls) is recorded as “selectively potentiates GluN1/GluN2A NMDARs”. In addition, the “Shift of NMDA dose-response curve” value in assay [1] (Npam43 5 μM) is reported as “shifted left”. Moreover, the “Potentiation of NMDAR currents” value on GluN1/GluN2B NMDARs (10 μM) was “did not exhibit potentiation”. Also, the “Dose-dependent enhancement of currents” value on GluN1/GluN2B NMDARs (GluN2B-containing NMDARs recordings) is “No dose-dependent enhancement of currents”.
